{
  "source": "paper PMC7400457",
  "about": "“Profiling and Identification of Omeprazole Metabolites in Mouse Brain and Plasma by Isotope Ratio-Monitoring Liquid Chromatography-Mass Spectrometric Method” (Life, 2020)",
  "test": "Pharmacokinetic study of omeprazole in mice after i.v., i.p. and p.o. administration (plasma and brain, LC-QTOF-MS)",
  "assay_type": "in vivo, Male ICR mice",
  "conditions": "10 mg/kg; for Kp: brain/plasma; for bioavailability: read-out: BA (bioavailability)",
  "procedure": "Omeprazole formulation was freshly prepared on the day of experiment. Mice were randomly distributed into three different groups (twelve mice per group; p.o. group, i.v. group and i.p. group) and received 10 mg/kg of omeprazole. […] Blood was drawn into the heparinized tubes through cardiac puncture and was immediately centrifuged at 10,000 rpm for 5 min. The supernatant of the centrifuged samples was transferred to the clean tubes and stored at −80 °C until analysis. […] The homogenized samples were stored at −80 °C until usage. • Plasma samples: Ten microliters of the mouse plasma samples were placed in cluster tubes. […] Hundred microliters of ACN containing internal standard (ISTD, verapamil) was added to each sample for extraction. The mixture was capped, gently shaken for approximately 1 min and then was centrifuged for 5 min at 10,000 rpm (4 °C). Following the centrifugation, 50 μL supernatant was transferred to a clean test tube and was diluted with 100 μL of distilled water. […] Ten microliters of the mouse brain homogenate were placed in cluster tubes. […] Hundred microliters of ACN containing internal standard (ISTD, verapamil) was added to each sample for extraction. The mixture was capped, gently shaken for approximately 1 min and then centrifuged for 5 min at 10,000 rpm (4 °C). Following the centrifugation, 50 μL supernatant was transferred to a clean test tube and was diluted with 100 μL of distilled water. The resulting mixture was then transferred to an LC-vial, and 10 μL was injected to the LC–QTOF–MS. • Standard (STD) and quality control (QC) samples: […] The mixture was capped, gently shaken for approximately 1 min and then centrifuged for 5 min at 10,000 rpm (4 °C). Following the centrifugation, 50 μL supernatant was transferred to a clean test tube and was diluted with 100 μL of distilled water. The resulting mixture was then transferred to an LC–vial, and 10 μL was injected to the LC–QTOF–MS. Data acquisition and LC–QTOF-MS operation was conducted using Analyst® TF Version 1.6 (Sciex). MultiQuant® Version 2.1.1 (Sciex) was used for the peak integration of omeprazole for quantification. PeakView® Version 2.2 and MetabolitePilot^TM Version 2.0.2 were used for the structural elucidation of omeprazole metabolites. Pharmacokinetic parameters were calculated in a non-compartmental analysis using WinNonlin® version 8.0.0 (Certara, Princeton, NJ, USA). The developed LC–QTOF-MS method was successfully applied to determine the PK parameters after i.v., i.p. and p.o. administration at a dose level of 10 mg/kg each for omeprazole in mice. During the sample preparation of the PK samples, QC samples were included for the assurance of the bioanalytical run. All the PK samples were within the range of the qualified calibration range (3.02~6670 ng/mL). Final concentrations were calculated by considering the dilution factors (e.g., 4× and 2× of the concentrations obtained from the brain and plasma, respectively). Each PK parameters were measured by non-compartmental analysis using WinNonlin (version 8.0.0). […] (Kp) = AUCbrain/AUCplasma(1)",
  "note": "Where two headings read alike, the source gives them in different places.",
  "data": [
    {"molecule": "COc1ccc2[nH]c([S+]([O-])Cc3ncc(C)c(OC)c3C)nc2c1", "note": "(stereo not shown) [Omeprazole]", "values": [
      {"measurement": "brain-to-plasma partition coefficient (Kp) = AUCbrain/AUCplasma", "setting": "i.p., AUClast", "result": 0.0681},
      {"measurement": "Kp", "setting": "male, ICR, mouse, ip, i.p., AUClast, read-out: brain-to-plasma partition coefficient (Kp) = AUCbrain/AUCplasma", "result": 0.068},
      {"measurement": "Kp", "setting": "male, ICR, mouse, ip, i.p., read-out: Brain/Plasma Ratio", "result": 0.0681},
      {"measurement": "Kp", "setting": "male, ICR, mouse, iv, i.v., AUClast, read-out: brain-to-plasma partition coefficient (Kp) = AUCbrain/AUCplasma", "result": 0.15},
      {"measurement": "Kp", "setting": "male, ICR, mouse, iv, i.v., read-out: Brain/Plasma Ratio", "result": 0.147},
      {"measurement": "Kp", "setting": "male, ICR, mouse, po, p.o., AUClast, read-out: brain-to-plasma partition coefficient (Kp) = AUCbrain/AUCplasma", "result": 0.064},
      {"measurement": "Kp", "setting": "male, ICR, mouse, po, p.o., read-out: Brain/Plasma Ratio", "result": 0.0643},
      {"measurement": "AUC(0-t)", "setting": "male, ICR, mouse, ip, brain", "result": 72.8, "unit": "ng·h/mL"},
      {"measurement": "half-life", "setting": "male, ICR, mouse, ip, brain", "result": 51.3, "unit": "min"},
      {"measurement": "AUC(0-t)", "setting": "male, ICR, mouse, ip, plasma", "result": 1070, "unit": "ng·h/mL"},
      {"measurement": "Cmax", "setting": "male, ICR, mouse, ip, plasma", "result": 4890, "unit": "ng/mL"},
      {"measurement": "half-life", "setting": "male, ICR, mouse, ip, plasma", "result": 28.8, "unit": "min"},
      {"measurement": "AUC(0-t)", "setting": "male, ICR, mouse, iv, brain", "result": 652, "unit": "ng·h/mL"},
      {"measurement": "half-life", "setting": "male, ICR, mouse, iv, brain", "result": 48.2, "unit": "min"},
      {"measurement": "AUC(0-t)", "setting": "male, ICR, mouse, iv, plasma", "result": 4440, "unit": "ng·h/mL"},
      {"measurement": "Cmax", "setting": "male, ICR, mouse, iv, plasma", "result": 67600, "unit": "ng/mL"},
      {"measurement": "Vd", "setting": "male, ICR, mouse, iv, plasma", "result": 1.49, "unit": "L/kg"},
      {"measurement": "clearance", "setting": "male, ICR, mouse, iv, plasma", "result": 37.8, "unit": "mL/min/kg"},
      {"measurement": "half-life", "setting": "male, ICR, mouse, iv, plasma", "result": 27.4, "unit": "min"},
      {"measurement": "bioavailability", "setting": "male, ICR, mouse, plasma, ip", "result": 24.1, "unit": "%"},
      {"measurement": "bioavailability", "setting": "male, ICR, mouse, plasma, po", "result": 5.31, "unit": "%"},
      {"measurement": "AUC(0-t)", "setting": "male, ICR, mouse, po, brain", "result": 15.2, "unit": "ng·h/mL"},
      {"measurement": "Cmax", "setting": "male, ICR, mouse, po, brain", "result": 37.8, "unit": "ng/mL"},
      {"measurement": "half-life", "setting": "male, ICR, mouse, po, brain", "result": 44.6, "unit": "min"},
      {"measurement": "AUC(0-t)", "setting": "male, ICR, mouse, po, plasma", "result": 236, "unit": "ng·h/mL"},
      {"measurement": "Cmax", "setting": "male, ICR, mouse, po, plasma", "result": 610, "unit": "ng/mL"},
      {"measurement": "half-life", "setting": "male, ICR, mouse, po, plasma", "result": 54.8, "unit": "min"},
      {"measurement": "brain-to-plasma partition coefficient (Kp) = AUCbrain/AUCplasma", "setting": "p.o., AUClast", "result": 0.0643}
    ]}
  ]
}
